Calls of active or inactive are those of the source. The rule behind the calls is not given here.
Tests used:
[1] = molecular target: T1, Signal transducer and activator of transcription 3 (Homo sapiens, UniProt P40763); test: Inhibition of human recombinant STAT3 (127 to 722 residues) transcriptional activity expressed in HEK293T cells in presence of IL-6 by Dual-luciferase reporter gene assay; format: cell-based
MKN-45 [2] = test: Antiproliferative activity against human MKN-45 cells assessed as reduction in cell viability incubated for 72 hrs by MTS assay; format: functional, cell-based; conditions: MKN-45, 72 h
[3] = molecular target: T1, Signal transducer and activator of transcription 3; test: Inhibition of STAT3 phosphorylation at Tyr705 residue in human MGC-803 cells upto 40 nM incubated upto 24 hrs by Western blotting analysis; format: cell-based
[4] = molecular target: T1, Signal transducer and activator of transcription 3; test: Inhibition of STAT3 phosphorylation at Ser727 residue in human MKN-45 cells incubated upto 24 hrs by Western blotting analysis; format: cell-based; conditions: dose <= 40.0 nM, DDE = dose-dependent effect
[5] = molecular target: T1, Signal transducer and activator of transcription 3; test: Inhibition of STAT3 phosphorylation at Tyr705 residue in human MKN-45 cells incubated upto 24 hrs by Western blotting analysis; format: cell-based; conditions: dose <= 40.0 nM, DDE = dose-dependent effect
[6] = molecular target: T1, Signal transducer and activator of transcription 3; test: Inhibition of STAT3 phosphorylation at Tyr705 residue in human AGS cells incubated upto 24 hrs by Western blotting analysis; format: cell-based; conditions: dose <= 40.0 nM, DDE = dose-dependent effect
[7] = molecular target: T1, Signal transducer and activator of transcription 3; test: Binding affinity to human STAT3-SH2 domain (127 to 722 residues) assessed as dissociation constant by MST assay
[8] = molecular target: T2, Mitogen-activated protein kinase 13 (Homo sapiens, UniProt O15264); test: Inhibition of p38delta (unknown origin)
T2 sequence (O15264 whole entry): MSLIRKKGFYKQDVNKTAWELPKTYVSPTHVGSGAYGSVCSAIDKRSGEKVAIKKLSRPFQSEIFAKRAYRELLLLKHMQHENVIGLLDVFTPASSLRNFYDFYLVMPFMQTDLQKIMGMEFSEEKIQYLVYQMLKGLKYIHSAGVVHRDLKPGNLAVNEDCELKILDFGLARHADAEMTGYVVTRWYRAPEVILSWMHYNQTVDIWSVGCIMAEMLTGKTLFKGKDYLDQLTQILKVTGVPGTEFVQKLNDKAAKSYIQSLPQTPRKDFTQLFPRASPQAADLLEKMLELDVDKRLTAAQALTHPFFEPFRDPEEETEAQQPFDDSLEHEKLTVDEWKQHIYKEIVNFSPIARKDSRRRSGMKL

[9] = molecular target: T1, Signal transducer and activator of transcription 3; test: Inhibition of STAT3 in human MKN-45 cells assessed as downregulation of c-Myc expression up to 40 nM by western blot analysis; format: cell-based; conditions: time <= 24.0 hrs, DDE = dose-dependent effect
[10] = molecular target: T1, Signal transducer and activator of transcription 3; test: Inhibition of STAT3 in human MGC-803 cells assessed as downregulation of c-Myc expression up to 40 nM by western blot analysis; format: cell-based; conditions: time <= 24.0 hrs, DDE = dose-dependent effect
[11] = molecular target: T1, Signal transducer and activator of transcription 3; test: Inhibition of STAT3 in human AGS cells assessed as downregulation of cyclin D1 expression at 10 to 40 nM incubated for 24 hrs by RT-PCR analysis; format: cell-based; conditions: dose 10-40 nM
[12] = molecular target: T1, Signal transducer and activator of transcription 3; test: Inhibition of phosphorylated STAT3 nuclear translocation at Tyr705 residue in human MKN-45 cells measured at 5 to 40 nM by immunoblotting analysis; format: cell-based; conditions: dose 5-40 nM
MKN-45 [13] = test: Inhibition of mitochondrial respiration in STAT3 knockdown human MKN-45 cells assessed as maximal oxygen consumption rate incubated for 80 mins […]; format: functional, cell-based
GES1 = test: Antiproliferative activity against human GES1 cells assessed as cell viability measured upto 1 uM incubated for 72 hrs by MTS assay; format: toxicity, cell-based; conditions: ges1, 72 h
AGS [14] = test: Inhibition of colony formation in human AGS cells assessed as reduction in number of colonies incubated for 5 to 7 days by crystal violet staining based assay; format: functional, cell-based; conditions: dose <= 20.0 nM, time 5-7 day, DDE = dose-dependent effect
MKN-45 [15] = test: Induction of apoptosis in human MKN-45 cells assessed as viable cells at 10 nM incubated for 48 hrs by FITC-annexin V/propidium iodide staining based flow cytometry (reference value: 68%); format: functional; conditions: read-out: Activity
MKN-45 [16] = test: Induction of apoptosis in human MKN-45 cells assessed as early apoptic cells 20 nM incubated for 48 hrs by FITC-annexin V/propidium iodide staining based flow cytometry (reference value: 2.79%); format: functional
MKN-45 [17] = test: Induction of apoptosis in human MKN-45 cells assessed as late apoptic cells 20 nM incubated for 48 hrs by FITC-annexin V/propidium iodide staining based flow cytometry (reference value: 17.9%); format: functional
AGS [18] = test: Induction of apoptosis in human AGS cells assessed as viable cells at 10 nM incubated for 48 hrs by FITC-annexin V/propidium iodide staining based flow cytometry (reference value: 87.2%); format: functional; conditions: read-out: Activity
AGS [19] = test: Induction of apoptosis in human AGS cells assessed as early apoptic cells 20 nM incubated for 48 hrs by FITC-annexin V/propidium iodide staining based flow cytometry (reference value: 0.55%); format: functional
Cytochrome P450 1A2 = molecular target: T3, Cytochrome P450 1A2 (Homo sapiens, UniProt P05177); test: Inhibition of CYP1A2 in human liver microsome; format: ADME, microsomes
T3 sequence (P05177 whole entry): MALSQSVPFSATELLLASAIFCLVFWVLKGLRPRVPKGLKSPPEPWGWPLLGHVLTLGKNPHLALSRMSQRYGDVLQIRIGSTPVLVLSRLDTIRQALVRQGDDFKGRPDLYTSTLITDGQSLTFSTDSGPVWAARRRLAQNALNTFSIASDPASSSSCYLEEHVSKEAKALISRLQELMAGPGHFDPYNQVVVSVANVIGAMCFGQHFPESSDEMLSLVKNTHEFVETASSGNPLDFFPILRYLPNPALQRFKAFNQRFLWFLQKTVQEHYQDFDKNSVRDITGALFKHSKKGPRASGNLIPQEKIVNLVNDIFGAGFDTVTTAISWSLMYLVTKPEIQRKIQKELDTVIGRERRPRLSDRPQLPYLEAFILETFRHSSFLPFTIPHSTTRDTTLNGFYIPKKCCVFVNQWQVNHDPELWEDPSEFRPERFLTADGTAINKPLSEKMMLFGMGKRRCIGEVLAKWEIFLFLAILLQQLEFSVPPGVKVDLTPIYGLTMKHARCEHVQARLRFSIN

[20] = AUC (0 to infinity) in ICR mouse plasma at 1 mg/kg, iv measured up to 24 hrs by LC-MS/MS analysis; format: ADME, organism-based; set-up: time < 24 hrs, dose 1 mg/kg, route iv
AGS [21] = test: Inhibition of colony formation in STAT3 knockdown human AGS cells assessed as reduction in number of colonies incubated for 5 to 7 days by crystal violet staining based assay; format: functional, cell-based; conditions: time 5-7 day
MKN-45 [22] = test: In vivo inhibition of STAT3 phosphorylation at Ser727 residue in human MKN-45 cells xenografted in BALB/c nude mouse at 25 to 50 mg/kg, po qd administered for 5 weeks by immunohistochemical analysis; format: functional, organism-based; conditions: dose 25-50 mg/kg
[23] = Toxicity in […] mouse xenografted with human MKN-45 cells assessed as liver damage at 25 to 50 mg/kg, po qd administered for 5 weeks by H and E staining based analysis; format: organism-based; conditions: in vivo, 840 h, dose 25-50 mg/kg
[24] = Toxicity in […] mouse xenografted with human MKN-45 cells assessed as spleen damage at 25 to 50 mg/kg, po qd administered for 5 weeks by H and E staining based analysis; format: organism-based; conditions: in vivo, 840 h, dose 25-50 mg/kg

T1 sequence (P40763 whole entry, the tested form may be a part): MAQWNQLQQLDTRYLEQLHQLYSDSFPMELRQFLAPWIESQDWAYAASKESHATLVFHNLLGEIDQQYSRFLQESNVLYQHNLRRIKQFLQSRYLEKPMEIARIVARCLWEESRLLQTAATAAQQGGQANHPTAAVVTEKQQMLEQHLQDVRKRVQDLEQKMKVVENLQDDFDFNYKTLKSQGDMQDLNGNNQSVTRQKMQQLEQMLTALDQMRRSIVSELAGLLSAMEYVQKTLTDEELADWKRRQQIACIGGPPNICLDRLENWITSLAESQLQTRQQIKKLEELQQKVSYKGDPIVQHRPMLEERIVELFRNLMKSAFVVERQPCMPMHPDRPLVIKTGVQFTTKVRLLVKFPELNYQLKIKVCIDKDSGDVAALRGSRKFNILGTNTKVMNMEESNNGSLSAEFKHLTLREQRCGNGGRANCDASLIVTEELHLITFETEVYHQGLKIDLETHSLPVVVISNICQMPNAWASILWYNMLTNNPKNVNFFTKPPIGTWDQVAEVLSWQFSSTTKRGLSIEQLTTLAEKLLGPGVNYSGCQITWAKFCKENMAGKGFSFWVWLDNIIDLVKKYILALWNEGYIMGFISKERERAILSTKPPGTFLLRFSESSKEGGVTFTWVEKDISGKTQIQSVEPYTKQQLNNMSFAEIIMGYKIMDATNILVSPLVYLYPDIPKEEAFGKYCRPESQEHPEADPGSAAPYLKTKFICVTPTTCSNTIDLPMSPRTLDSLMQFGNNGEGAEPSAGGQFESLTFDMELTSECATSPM

**Q.** With `O=C(c1ccc(-c2noc(-c3ccc(C(F)(F)F)cc3)n2)cc1)N1CCN(Cc2ccc(OCC(F)(F)F)cc2)CC1` as the molecule, how does the IC50 [1] read?
**A.** The IC50 was 27.8 nM.

**Q.** What about the IC50 (MKN-45 [2]) of the same molecule?
**A.** Its IC50 is 9.3 nM.

**Q.** And the inhibition [3]?
**A.** Its inhibition is 100%.

**Q.** And the inhibition [4]?
**A.** The inhibition was “Dde”.

**Q.** What about the inhibition [5] of the same molecule?
**A.** Its inhibition is “Dde”.

**Q.** And the inhibition [6]?
**A.** Its inhibition is “Dde”.

**Q.** What about the Kd [7] of the same molecule?
**A.** Its Kd is 114 nM.

**Q.** And the IC50 [8]?
**A.** Its IC50 is > 10000 nM.

**Q.** What about the inhibition [9] of the same molecule?
**A.** Its inhibition is “Dde”.

**Q.** What about the inhibition [10] of the same molecule?
**A.** Its inhibition is “Dde”.

**Q.** What about the inhibition [11] of the same molecule?
**A.** The inhibition was “Active”.

**Q.** And the inhibition [12]?
**A.** Its inhibition is “Active”.

**Q.** What about the inhibition (MKN-45 [13]) of the same molecule?
**A.** Its inhibition is “Active”.

**Q.** And the Activity (GES1)?
**A.** The Activity was “Non-Toxic”.

**Q.** And the inhibition (AGS [14])?
**A.** The inhibition was “Dde”.

**Q.** What about the viability at 0.01 µM (MKN-45 [15]) of the same molecule?
**A.** Its viability at 0.01 µM is 68.5%.

**Q.** And the Activity (MKN-45 [16])?
**A.** The Activity was 5.06%.

**Q.** And the Activity (MKN-45 [17])?
**A.** The Activity was 22%.

**Q.** What about the viability at 0.01 µM (AGS [18]) of the same molecule?
**A.** The viability at 0.01 µM was 82.3%.

**Q.** What about the Activity (AGS [19]) of the same molecule?
**A.** The Activity was 3.8%.

**Q.** And the IC50 (Cytochrome P450 1A2)?
**A.** Its IC50 is > 50000 nM.

**Q.** And the AUC(0-inf) [20]?
**A.** Its AUC(0-inf) is 2270 ng·h/mL.

**Q.** What about the inhibition (AGS [21]) of the same molecule?
**A.** The inhibition was “Active”.

**Q.** What about the inhibition (MKN-45 [22]) of the same molecule?
**A.** Its inhibition is “Active”.

**Q.** And the Activity [23]?
**A.** The Activity was “Non-Toxic”.

**Q.** And the Activity [24]?
**A.** Its Activity is “Non-Toxic”.

— ChEMBL document CHEMBL5108044, “Discovery of a Novel Potent STAT3 Inhibitor HP590 with Dual p-Tyr705/Ser727 Inhibitory Activity for Gastric Cancer Treatment” (J Med Chem, 2022)
